{"source": "paper PMC5553193", "about": "(Journal of the American Chemical Society, 2015)", "key": {"DC-SIGN [1]": {"molecular_target": "T1, DC-SIGN (Homo sapiens, UniProt Q9NNX6)", "T1 sequence (Q9NNX6 1-404)": "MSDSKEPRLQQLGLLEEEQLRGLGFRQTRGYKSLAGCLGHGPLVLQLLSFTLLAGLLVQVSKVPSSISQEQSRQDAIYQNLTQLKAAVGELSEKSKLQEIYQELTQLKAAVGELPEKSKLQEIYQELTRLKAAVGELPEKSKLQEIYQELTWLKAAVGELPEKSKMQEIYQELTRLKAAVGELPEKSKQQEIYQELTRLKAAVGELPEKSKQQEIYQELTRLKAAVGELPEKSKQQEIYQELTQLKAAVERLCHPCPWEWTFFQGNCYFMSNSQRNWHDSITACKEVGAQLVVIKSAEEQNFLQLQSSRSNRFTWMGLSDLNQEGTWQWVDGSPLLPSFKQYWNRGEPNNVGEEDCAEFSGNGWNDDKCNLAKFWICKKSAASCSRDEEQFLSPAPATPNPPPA", "assay": "ESI-MS binding assay with DC-SIGN"}, "ConA [2]": {"molecular_target": "T2, ConA (Canavalia ensiformis, UniProt P02866)", "assay_type": "binding"}, "PSA": {"molecular_target": "T3, PSA (Pisum sativum, UniProt P02867)", "T3 sequence (P02867 31-211 limits assumed)": "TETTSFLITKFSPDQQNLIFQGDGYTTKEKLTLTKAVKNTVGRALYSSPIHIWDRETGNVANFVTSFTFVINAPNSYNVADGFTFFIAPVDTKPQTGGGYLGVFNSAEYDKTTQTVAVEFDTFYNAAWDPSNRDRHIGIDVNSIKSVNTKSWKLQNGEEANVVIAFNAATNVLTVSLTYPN", "T3 sequence (P02867 218-269 limits assumed)": "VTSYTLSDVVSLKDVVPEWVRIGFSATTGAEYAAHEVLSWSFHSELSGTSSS", "assay": "ITC with PSA", "assay_type": "binding"}, "LcH": {"molecular_target": "T4, LcH (Lens culinaris, UniProt P02870)", "T4 sequence (P02870 31-211 limits assumed)": "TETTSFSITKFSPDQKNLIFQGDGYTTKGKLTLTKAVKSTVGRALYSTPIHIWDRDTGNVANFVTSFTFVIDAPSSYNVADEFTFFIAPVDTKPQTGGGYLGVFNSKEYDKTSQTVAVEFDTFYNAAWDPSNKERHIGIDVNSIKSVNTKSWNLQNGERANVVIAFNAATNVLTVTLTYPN", "T4 sequence (P02870 218-269 limits assumed)": "T3 sequence (P02867 218-269 limits assumed) with S7N, D8E, S11P, Y32F, L38H, S47G", "assay": "ITC with LcH", "assay_type": "binding"}, "ConA [3]": {"molecular_target": "T2, ConA", "settings": "read-out: KD with ConA; literature value; cited from earlier work"}, "DC-SIGN [4]": {"molecular_target": "T1, DC-SIGN", "settings": "read-out: KD with DC-SIGN; literature value; cited from earlier work"}}, "note": "Where a chain is given by its changes, count along the chain named. Peptide text beside a SMILES is read from it. * marks the point of attachment. X1 = O=C(C=NOCCO[C@H]1O[C@H](CO)[C@@H](O)[C@H](O)[C@@H]1O)*", "data": [{"smiles": "NC(=O)[C@H](CC(=O)O)NC(=O)[C@H](Cc1ccc(O)cc1)NC(=O)[C@H](Cc1c[nH]c2ccccc12)NC(=O)C=NOCCO[C@H]1O[C@H](CO)[C@@H](O)[C@H](O)[C@@H]1O", "note": "[L20]", "values": [{"measurement": "enhanced affinity for DC-SIGN", "setting": "DC-SIGN [1]", "value": "enhanced affinity"}]}, {"smiles": "CC[C@H](C)[C@H](NC(=O)[C@H](CC(N)=O)NC(=O)[C@H](CC(=O)O)NC(=O)[C@H](Cc1ccccc1)NC(=O)[C@H](CC(C)C)NC(=O)[C@H](CC(=O)O)NC(=O)[C@H](Cc1ccc(O)cc1)NC(=O)[C@H](Cc1c[nH]c2ccccc12)NC(=O)C=NOCCO[C@H]1O[C@H](CO)[C@@H](O)[C@H](O)[C@@H]1O)C(=O)N[C@@H](CC(N)=O)C(=O)N[C@@H](CO)C(N)=O", "note": "[L30, Man-WYDLFDNINS] (X1-WYDLFDNINS-NH2; N-terminus assumed)", "values": [{"measurement": "fold enhancement in affinity (lower KD) over MeMan", "setting": "ConA [2]", "value": 33, "unit": "fold"}]}, {"smiles": "CC(C)C[C@H](NC(=O)[C@H](CC(=O)O)NC(=O)[C@H](Cc1ccc(O)cc1)NC(=O)[C@H](Cc1c[nH]c2ccccc12)NC(=O)C=NOCCO[C@H]1O[C@H](CO)[C@@H](O)[C@H](O)[C@@H]1O)C(=O)N[C@@H](Cc1ccccc1)C(N)=O", "note": "[L37, Man-WYDLF] (X1-WYDLF-NH2; N-terminus assumed)", "values": [{"measurement": "fold enhancement of binding of monosaccharide moiety by peptide fragment", "setting": "PSA", "value": 2, "unit": "fold"}, {"measurement": "fold enhancement of binding of monosaccharide moiety by peptide fragment", "setting": "LcH", "value": 2, "unit": "fold"}, {"measurement": "fold enhancement of binding of monosaccharide moiety by peptide fragment", "setting": "ConA [2]; ITC", "value": 35, "unit": "fold"}]}, {"smiles": "OC[C@H]1O[C@H](OC[C@H]2O[C@H](O)[C@@H](O)[C@@H](O[C@H]3O[C@H](CO)[C@@H](O)[C@H](O)[C@@H]3O)[C@@H]2O)[C@@H](O)[C@@H](O)[C@@H]1O", "note": "[Man3, α-Man-(1→3)-[α-Man-(1→6)]-α-Man]", "values": [{"measurement": "Kd", "setting": "ConA [3]", "value": 2.6, "unit": "µM"}, {"measurement": "Kd", "setting": "DC-SIGN [4]", "value": 590, "unit": "µM"}]}]}
